Values joined by “and” are separate entries in the source; they are usually repeats but may differ in a detail not shown here. Equal entries are not always repeated.
Experiment: Particle size analysis, Malvern particle size analyzer (Mastersizer 3000)
Format: physicochemical
Conditions: particle size distribution d90 of the isolated batch; dispersant water, Tween-80 paste, Mie model
Experimental: Particle size analysis was performed using a Malvern particle size analyzer. (Mastersizer 3000, Malvern Instrument Ltd).
Weigh accurately 100 mg of sample in 100 ml beaker. Add 3 drops of Tween-80 and 1 mL of water and make a paste with the help of glass rod. Then add 10 ml water and sonicate externally for 10 seconds with continued shaking.

SMILES | PSD (d90)
CCc1cnc(N2CCC([C@H](C)Oc3nn4cc(-c5ccc(S(C)(=O)=O)cc5F)nc4s3)CC2)nc1 [Form M-1, 2-((S)-1-(1-(5-ethyl-pyrimidin-2-yl)piperidin-4-yl)ethoxy)-6-(2-fluoro-4-(methylsulfonyl)phenyl) imidazo[2,1-b][1,3,4]thiadiazole] | 84.9 μm and 62.4 μm and 106 μm
CCc1cnc(N2CCC([C@H](C)Oc3nn4cc(-c5ccc(S(C)(=O)=O)cc5F)nc4s3)CC2)nc1 [Form M-2, 2-((S)-1-(1-(5-ethyl-pyrimidin-2-yl)piperidin-4-yl)ethoxy)-6-(2-fluoro-4-(methylsulfonyl)phenyl) imidazo[2,1-b][1,3,4]thiadiazole] | 99.8 μm
CCc1cnc(N2CCC([C@H](C)Oc3nn4cc(-c5ccc(S(C)(=O)=O)cc5F)nc4s3)CC2)nc1 [Form M-4, 2-((S)-1-(1-(5-ethyl-pyrimidin-2-yl)piperidin-4-yl)ethoxy)-6-(2-fluoro-4-(methylsulfonyl)phenyl) imidazo[2,1-b][1,3,4]thiadiazole] | 30-60 μm
CCc1cnc(N2CCC([C@H](C)Oc3nn4cc(-c5ccc(S(C)(=O)=O)cc5F)nc4s3)CC2)nc1 [amorphous Form, 2-((S)-1-(1-(5-ethyl-pyrimidin-2-yl)piperidin-4-yl)ethoxy)-6-(2-fluoro-4-(methylsulfonyl)phenyl) imidazo[2,1-b][1,3,4]thiadiazole] | 50-80 μm
